Assays:
Format in all cases: cell-based
[1] = test system: lung cancer cells (Bm7brmx2-1st); assay: cytotoxicity assay in Bm7brmx2-1st cells; design: key to effect of inhibiting tumor cell growth: “+” represents that the compound has the effect of inhibiting tumor cell growth
Protocol: (§1) Please refer to FIG. 1A, FIG. 1B and Table 2, which show the analysis results of the compound of Formula (I) inhibiting ADAM9 activity. In FIG. 1A, Bm7 lung cancer cells were treated with the derivatives of the compound 6X-0310, and then cultured under anchorage-free culture condition. The expressions of ADAM9 and CDCP1 in Bm7 lung cancer cells were detected by Western blot, in which EF1α is an internal control, and mock represents Bm7 lung cancer cells without treatment. […] In the experiment, the compounds of Formula (I) of Example 1 to Example 32 were further performed cytotoxicity assay to measure the IC50 value of the compounds of Formula (I) of the present disclosure in lung cancer cell lines.

[2] = cytotoxicity assay in HNOF cells; design: key to effect of inhibiting tumor cell growth: “+” represents that the compound has the effect of inhibiting tumor cell growth; conditions: human, HNOF cells
HNOF = assay: cytotoxicity assay in HNOF cells; design: key to effect of inhibiting tumor cell growth: “+” represents that the compound has the effect of inhibiting tumor cell growth; conditions: HNOF
[3] = test system: lung cancer cells (H1299); assay: cytotoxicity assay in H1299 cells; design: key to effect of inhibiting tumor cell growth: “+” represents that the compound has the effect of inhibiting tumor cell growth; conditions: for effect of inhibiting tumor cell growth: H1299; for IC50: Homo sapiens, NCI-H1299
Protocol: as §1

[4] = test system: lung cancer cells (Bm7brmx2-2nd); assay: cytotoxicity assay in Bm7brmx2-2nd cells; design: key to effect of inhibiting tumor cell growth: “+” represents that the compound has the effect of inhibiting tumor cell growth
Protocol: as §1

Bm7 lung cancer cells = assay: cytotoxicity assay, FIG. 1B and Table 2 summary
Protocol: as §1

[5] = test system: lung cancer cells (Bm7brmx2); assay: cytotoxicity assay in Bm7brmx2 cells; design: key to effect of inhibiting tumor cell growth: “+” represents that the compound has the effect of inhibiting tumor cell growth
Protocol: as §1

lung cancer cells (TC1) = assay: cytotoxicity assay in TC1 cells; design: key to effect of inhibiting tumor cell growth: “+” represents that the compound has the effect of inhibiting tumor cell growth; conditions: for IC50: TC-1
Protocol: as §1

lung cancer cells (A549) = assay: cytotoxicity assay in A549 cells; design: key to effect of inhibiting tumor cell growth: “+” represents that the compound has the effect of inhibiting tumor cell growth; conditions: for IC50: Homo sapiens
Protocol: as §1

[6] = cytotoxicity assay in 293 cells; design: key to effect of inhibiting tumor cell growth: “+” represents that the compound has the effect of inhibiting tumor cell growth; conditions: 293
[7] = test system: kidney cancer cells (293); assay: cytotoxicity assay in 293 cells; design: key to effect of inhibiting tumor cell growth: “+” represents that the compound has the effect of inhibiting tumor cell growth; conditions: Homo sapiens, HEK293
[8] = test system: CDCP1 in Bm7 lung cancer cells; assay: Western blot of ADAM9 and CDCP1 expression in Bm7 cells; conditions: anchorage-free culture
Protocol: as §1

SMILES | IC50 [1] | effect of inhibiting tumor cell growth [1] | IC50 [2] | effect of inhibiting tumor cell growth (HNOF) | effect of inhibiting tumor cell growth [3] | IC50 [3] | IC50 [4] | effect of inhibiting tumor cell growth [4] | tumor cell cytotoxicity compared with the core structure compound 6X-0310 (Bm7 lung cancer cells) | IC50 [5] | effect of inhibiting tumor cell growth [5] | effect of inhibiting tumor cell growth (lung cancer cells (TC1)) | IC50 (lung cancer cells (TC1)) | effect of inhibiting tumor cell growth (lung cancer cells (A549)) | IC50 (lung cancer cells (A549)) | effect of inhibiting tumor cell growth [6] | IC50 [7] | expression of CDCP1 [8]
CSc1ccc(/C=C(/C#N)c2nc(CCN3C(=O)c4ccccc4C3=O)cs2)cc1 [4X-0296] | 39.3 µM | + | 96.2 µM | + | + | 94.5 µM | 447 µM | + | stronger tumor cell cytotoxicity | 92 µM | + | + | 73.6 µM | + | 167 µM | + | 79.2 µM | reduce the expression of CDCP1
N#C/C(=C/c1cc([N+](=O)O)ccc1Sc1ccccn1)c1nc(CCN2C(=O)c3ccccc3C2=O)cs1 [6X-0229] | 56.2 µM | + | 145 µM | + | + | 171 µM | 113 µM | + | – | 374 µM | + | + | 167 µM | + | 109 µM | + | 133 µM | –
O=C1c2ccccc2C(=O)N1CCc1csc(-c2ccccc2)n1 [11W-0296] | 175 µM | + | 92 µM | + | + | 234 µM | 147 µM | + | – | 1260 µM | + | + | 259 µM | + | 421 µM | + | 62.6 µM | –
N#C/C(=C\c1ccc(OCc2cccc(C(F)(F)F)c2)cc1)c1nc(CCN2C(=O)c3ccccc3C2=O)cs1 [6X-0310] | 54.6 µM | + | 141 µM | + | + | 116 µM | 250 µM | + | – | 176 µM | + | + | 111 µM | + | 200 µM | + | 58.9 µM | reduce the expression of CDCP1
Cc1ccc(-c2nc(CCN3C(=O)c4ccccc4C3=O)cs2)cc1 [12W-0274] | 80.6 µM | + | 125 µM | + | + | 203 µM | 472 µM | + | – | 913 µM | + | + | 161 µM | + | > 125 µM | + | 21.8 µM | –
O=C1c2ccccc2C(=O)N1CCc1csc(COc2ccccc2Cl)n1 [12W-0264] | 40.9 µM | + | > 125 µM | + | + | 138 µM | 151 µM | + | stronger tumor cell cytotoxicity | 99.2 µM | + | + | 88.9 µM | + | 162 µM | + | 59.7 µM | reduce the expression of CDCP1
N#C/C(=C\c1cccc2ccccc12)c1nc(CCN2C(=O)c3ccccc3C2=O)cs1 [6X-0309] | 628 µM | + | 114 µM | + | + | 93.8 µM | 385 µM | + | – | 89.8 µM | + | + | 89.4 µM | + | > 125 µM | + | 82.2 µM | –
O=C1c2ccccc2C(=O)N1CCc1csc(-c2nc(CCN3C(=O)c4ccccc4C3=O)cs2)n1 [12W-0290] | 84.2 µM | + | 147 µM | + | + | 159 µM | 3980 µM | + | – | 845 µM | + | + | 399 µM | + | > 125 µM | + | 69.4 µM | –
N#C/C(=C\c1ccccc1Oc1ccc(Cl)cc1Cl)c1nc(CCN2C(=O)c3ccccc3C2=O)cs1 [4X-0312] | 63.4 µM | + | 262 µM | + | + | 121 µM | 491 µM | + | – | 301 µM | + | + | 136 µM | + | 644 µM | + | 134 µM | –
N#C/C(=C/c1cccc(C(F)(F)F)c1)c1nc(CCN2C(=O)c3ccccc3C2=O)cs1 [4X-0302] | 520 µM | + | 152 µM | + | + | 190 µM | 434 µM | + | – | 852 µM | + | + | 125 µM | + | 116 µM | + | 55.7 µM | –
COc1ccc(OC)c(/C=N/Nc2nc(CCN3C(=O)c4ccccc4C3=O)cs2)c1 [2X-0295] | 53.2 µM | + | 78.4 µM | + | + | 72 µM | 267 µM | + | stronger tumor cell cytotoxicity | 75.2 µM | + | + | 79 µM | + | 1020 µM | + | 77.4 µM | reduce the expression of CDCP1
O=C1c2ccccc2C(=O)N1CCc1csc(-c2cccc(F)c2)n1 [12W-0275] | 97 µM | + | 129 µM | + | + | 156 µM | 441 µM | + | – | 212 µM | + | + | 103 µM | + | 199 µM | + | 109 µM | –
O=C1c2ccccc2C(=O)N1CCc1csc(-c2ccccn2)n1 [12W-0266] | 88.8 µM | + | 184 µM | + | + | 253 µM | 134 µM | + | – | 429 µM | + | + | 169 µM | + | 190 µM | + | 122 µM | –
